Tested on: panel of 55 breast cancer cell lines
Assay: Cell growth inhibition assay (Cell Titer Glo, 72 h, 9 doses; GI50, TGI, LC50)
Type: cell-based, human
Conditions: value is the negative log10 of mol/L
[1] = HCC1419 cell line, censored GI50 values
[2] = HCC1428 cell line, censored GI50 values
[3] = HCC2185 cell line, censored GI50 values
[4] = MDAMB134VI cell line, censored GI50 values
[5] = MDAMB175VII cell line, censored GI50 values
[6] = MDAMB361 cell line, censored GI50 values
[7] = SUM52PE cell line, censored GI50 values
[8] = SUM185PE cell line, censored GI50 values
[9] = BT474 cell line, censored GI50 values
[10] = BT483 cell line, censored GI50 values
[11] = HCC38 cell line, censored GI50 values
[12] = HCC1187 cell line, censored GI50 values
[13] = SUM149PT cell line, censored GI50 values
[14] = SUM159PT cell line, censored GI50 values
[15] = UACC812 cell line, censored GI50 values
[16] = ZR75B cell line, censored GI50 values

**Q.** With CC(C)(C)c1cc(C=C(C#N)C#N)cc(Br)c1O [AG1024] as the molecule, how does the GI50 (HCC70 cell line, censored GI50 values) read?
**A.** 5.21

**Q.** What about the GI50 (HCC202 cell line, censored GI50 values) of the same molecule?
**A.** 4.92

**Q.** And the GI50 [1]?
**A.** 4.70

**Q.** And the GI50 [2]?
**A.** 5.05

**Q.** And the GI50 [3]?
**A.** 5.11

**Q.** What about the GI50 (HCC3153 cell line, censored GI50 values) of the same molecule?
**A.** 5.11

**Q.** What about the GI50 [4] of the same molecule?
**A.** 4.69

**Q.** What about the GI50 [5] of the same molecule?
**A.** 4.82

**Q.** What about the GI50 [6] of the same molecule?
**A.** 4.69

**Q.** And the GI50 [7]?
**A.** 5.45

**Q.** And the GI50 [8]?
**A.** 5.57

**Q.** And the GI50 (SUM225CWN cell line, censored GI50 values)?
**A.** 5.03

**Q.** What about the GI50 (SUM1315MO2 cell line, censored GI50 values) of the same molecule?
**A.** 5.17

**Q.** What about the GI50 (T47D cell line, censored GI50 values) of the same molecule?
**A.** 4.68

**Q.** What about the GI50 (UACC893 cell line, censored GI50 values) of the same molecule?
**A.** 4.75

**Q.** What about the GI50 (cell line AU565) of the same molecule?
**A.** 4.48

**Q.** What about the GI50 (cell line BT20) of the same molecule?
**A.** 4.48

**Q.** What about the GI50 (cell line BT474) of the same molecule?
**A.** 4.48

**Q.** What about the GI50 (cell line BT483) of the same molecule?
**A.** 4.48

**Q.** And the GI50 (cell line BT549)?
**A.** 4.48

**Q.** And the GI50 (cell line CAMA1)?
**A.** 4.48

**Q.** What about the GI50 (cell line HCC38) of the same molecule?
**A.** 4.48

**Q.** And the GI50 (cell line HCC70)?
**A.** 5.21

**Q.** What about the GI50 (cell line HCC202) of the same molecule?
**A.** 4.92

**Q.** And the GI50 (cell line HCC1143)?
**A.** 4.58

**Q.** And the GI50 (cell line HCC1187)?
**A.** 4.48

**Q.** What about the GI50 (cell line HCC1395) of the same molecule?
**A.** 4.48

**Q.** And the GI50 (cell line HCC1419)?
**A.** 4.70

**Q.** And the GI50 (cell line HCC1428)?
**A.** 5.05

**Q.** And the GI50 (cell line HCC1500)?
**A.** 4.58

**Q.** And the GI50 (cell line HCC1806)?
**A.** 4.48

**Q.** What about the GI50 (cell line HCC1937) of the same molecule?
**A.** 4.48

**Q.** And the GI50 (cell line HCC1954)?
**A.** 4.50

**Q.** What about the GI50 (cell line HCC2185) of the same molecule?
**A.** 5.11

**Q.** What about the GI50 (cell line HCC3153) of the same molecule?
**A.** 5.11

**Q.** And the GI50 (cell line LY2)?
**A.** 4.48

**Q.** What about the GI50 (cell line MCF7) of the same molecule?
**A.** 4.48

**Q.** What about the GI50 (cell line MDAMB134V) of the same molecule?
**A.** 4.69

**Q.** What about the GI50 (cell line MDAMB157) of the same molecule?
**A.** 4.48

**Q.** What about the GI50 (cell line MDAMB175V) of the same molecule?
**A.** 4.82

**Q.** What about the GI50 (cell line MDAMB361) of the same molecule?
**A.** 4.69

**Q.** What about the GI50 (cell line MDAMB415) of the same molecule?
**A.** 4.48

**Q.** What about the GI50 (cell line MDAMB436) of the same molecule?
**A.** 4.48

**Q.** What about the GI50 (cell line MDAMB453) of the same molecule?
**A.** 4.51

**Q.** What about the GI50 (cell line MDAMB468) of the same molecule?
**A.** 4.48

**Q.** And the GI50 (cell line SKBR3)?
**A.** 4.48

**Q.** What about the GI50 (cell line SUM52PE) of the same molecule?
**A.** 5.45

**Q.** And the GI50 (cell line SUM149PT)?
**A.** 4.48

**Q.** What about the GI50 (cell line SUM185PE) of the same molecule?
**A.** 5.57

**Q.** And the GI50 (cell line SUM225CWN)?
**A.** 5.03

**Q.** And the GI50 (cell line SUM1315MO)?
**A.** 5.17

**Q.** What about the GI50 (cell line T47D) of the same molecule?
**A.** 4.68

**Q.** What about the GI50 (cell line UACC812) of the same molecule?
**A.** 4.48

**Q.** What about the GI50 (cell line UACC893) of the same molecule?
**A.** 4.75

**Q.** And the GI50 (cell line ZR75B)?
**A.** 4.48

**Q.** And the GI50 (cell line ZR751)?
**A.** 4.52

**Q.** Oc1cc(-c2nc(-c3ccccc3)[nH]c2-c2ccncc2)ccc1Cl [L-779450] was tested. Which GI50 [9] did it give?
**A.** 4.73

**Q.** And the GI50 [10]?
**A.** 4.84

**Q.** What about the GI50 [11] of the same molecule?
**A.** 4.77

**Q.** And the GI50 [12]?
**A.** 5.07

**Q.** What about the GI50 (HCC1395 cell line, censored GI50 values) of the same molecule?
**A.** 4.54

**Q.** And the GI50 [1]?
**A.** 4.78

**Q.** What about the GI50 [2] of the same molecule?
**A.** 4.80

**Q.** And the GI50 (HCC1937 cell line, censored GI50 values)?
**A.** 4.84

**Q.** And the GI50 [4]?
**A.** 4.60

**Q.** And the GI50 [5]?
**A.** 5.05

**Q.** What about the GI50 [6] of the same molecule?
**A.** 5.04

**Q.** And the GI50 (MDAMB436 cell line, censored GI50 values)?
**A.** 5.66

**Q.** What about the GI50 (MDAMB468 cell line, censored GI50 values) of the same molecule?
**A.** 4.90

**Q.** And the GI50 (SKBR3 cell line, censored GI50 values)?
**A.** 4.66

**Q.** What about the GI50 [7] of the same molecule?
**A.** 5.13

**Q.** And the GI50 [13]?
**A.** 5.13

**Q.** And the GI50 [14]?
**A.** 4.70

**Q.** What about the GI50 [15] of the same molecule?
**A.** 4.97

**Q.** And the GI50 [16]?
**A.** 4.51

**Q.** What about the GI50 (cell line AU565) of the same molecule?
**A.** 4.48

**Q.** And the GI50 (cell line BT20)?
**A.** 4.44

**Q.** What about the GI50 (cell line BT474) of the same molecule?
**A.** 4.73

**Q.** What about the GI50 (cell line BT483) of the same molecule?
**A.** 4.84

**Q.** What about the GI50 (cell line CAMA1) of the same molecule?
**A.** 4.44

**Q.** What about the GI50 (cell line HCC38) of the same molecule?
**A.** 4.77

**Q.** And the GI50 (cell line HCC70)?
**A.** 4.50

**Q.** What about the GI50 (cell line HCC1143) of the same molecule?
**A.** 4.39

**Q.** What about the GI50 (cell line HCC1187) of the same molecule?
**A.** 5.07

**Q.** And the GI50 (cell line HCC1395)?
**A.** 4.54

**Q.** What about the GI50 (cell line HCC1419) of the same molecule?
**A.** 4.78

**Q.** And the GI50 (cell line HCC1428)?
**A.** 4.80

**Q.** And the GI50 (cell line HCC1500)?
**A.** 4.48

**Q.** And the GI50 (cell line HCC1937)?
**A.** 4.84

**Q.** What about the GI50 (cell line HCC1954) of the same molecule?
**A.** 4.48

**Q.** And the GI50 (cell line HCC2185)?
**A.** 4.42

**Q.** And the GI50 (cell line HCC3153)?
**A.** 4.48

**Q.** What about the GI50 (cell line MCF7) of the same molecule?
**A.** 4.48

**Q.** What about the GI50 (cell line MDAMB134V) of the same molecule?
**A.** 4.60

**Q.** And the GI50 (cell line MDAMB175V)?
**A.** 5.05

**Q.** What about the GI50 (cell line MDAMB231) of the same molecule?
**A.** 4.49

**Q.** What about the GI50 (cell line MDAMB361) of the same molecule?
**A.** 5.04

**Q.** What about the GI50 (cell line MDAMB436) of the same molecule?
**A.** 5.66

**Q.** And the GI50 (cell line MDAMB453)?
**A.** 4.48

**Q.** What about the GI50 (cell line MDAMB468) of the same molecule?
**A.** 4.90

**Q.** What about the GI50 (cell line SKBR3) of the same molecule?
**A.** 4.66

**Q.** And the GI50 (cell line SUM52PE)?
**A.** 5.13

**Q.** And the GI50 (cell line SUM149PT)?
**A.** 5.13

**Q.** What about the GI50 (cell line SUM159PT) of the same molecule?
**A.** 4.70

**Q.** And the GI50 (cell line SUM1315MO)?
**A.** 4.62

**Q.** And the GI50 (cell line T47D)?
**A.** 4.48

**Q.** What about the GI50 (cell line UACC812) of the same molecule?
**A.** 4.97

**Q.** And the GI50 (cell line ZR75B)?
**A.** 4.51

**Q.** What about the GI50 (cell line ZR751) of the same molecule?
**A.** 4.53

**Q.** For O=S(=O)(CC1CS1)c1ccc(Oc2ccccc2)cc1 (centres unmarked) [SB-3CT], which GI50 (BT20 cell line, censored GI50 values) is on record?
**A.** 4.42

**Q.** And the GI50 [9]?
**A.** 4.99

**Q.** And the GI50 [10]?
**A.** 4.59

**Q.** What about the GI50 [11] of the same molecule?
**A.** 4.62

**Q.** And the GI50 [12]?
**A.** 4.83

**Q.** What about the GI50 [3] of the same molecule?
**A.** 4.21

**Q.** What about the GI50 [6] of the same molecule?
**A.** 4.00

**Q.** What about the GI50 (MDAMB415 cell line, censored GI50 values) of the same molecule?
**A.** 4.00

**Q.** What about the GI50 [7] of the same molecule?
**A.** 4.22

**Q.** And the GI50 [13]?
**A.** 4.53

**Q.** And the GI50 [14]?
**A.** 4.85

**Q.** What about the GI50 [8] of the same molecule?
**A.** 4.76

**Q.** What about the GI50 [15] of the same molecule?
**A.** 4.28

**Q.** And the GI50 [16]?
**A.** 4.62

**Q.** What about the GI50 (ZR751 cell line, censored GI50 values) of the same molecule?
**A.** 4.00

**Q.** And the GI50 (cell line AU565)?
**A.** 4.00

**Q.** What about the GI50 (cell line BT20) of the same molecule?
**A.** 4.42

**Q.** And the GI50 (cell line BT474)?
**A.** 4.99

**Q.** What about the GI50 (cell line BT483) of the same molecule?
**A.** 4.59

**Q.** What about the GI50 (cell line CAMA1) of the same molecule?
**A.** 4.00

**Q.** And the GI50 (cell line HCC38)?
**A.** 4.62

**Q.** What about the GI50 (cell line HCC70) of the same molecule?
**A.** 3.88

**Q.** And the GI50 (cell line HCC1143)?
**A.** 4.00

**Q.** And the GI50 (cell line HCC1187)?
**A.** 4.83

**Q.** What about the GI50 (cell line HCC1395) of the same molecule?
**A.** 3.78

**Q.** What about the GI50 (cell line HCC1419) of the same molecule?
**A.** 3.78

**Q.** What about the GI50 (cell line HCC1428) of the same molecule?
**A.** 4.18

**Q.** What about the GI50 (cell line HCC1500) of the same molecule?
**A.** 3.78

**Q.** What about the GI50 (cell line HCC1806) of the same molecule?
**A.** 4.00

**Q.** And the GI50 (cell line HCC1937)?
**A.** 4.00

**Q.** And the GI50 (cell line HCC1954)?
**A.** 4.00

**Q.** And the GI50 (cell line HCC2185)?
**A.** 4.21

**Q.** What about the GI50 (cell line HCC3153) of the same molecule?
**A.** 4.00

**Q.** And the GI50 (cell line MCF7)?
**A.** 4.00
